In article PMC8464048 (Nucleic Acids Research, 2021) one finds Kd data, which are given here for 1 compound.

The assay addresses T1, EcGlyRS-FL (heterotetrameric (αβ)2 glycyl-tRNA synthetase) (Escherichia coli, UniProt P00960+P00961).
T1 construct: gene glyQ; full-length alpha (1-303) and full-length beta (1-689, C-terminal 6xHis), co-expressed in E. coli BL21(DE3); (αβ)2 heterotetramer
T1 sequence (P00960 1-303): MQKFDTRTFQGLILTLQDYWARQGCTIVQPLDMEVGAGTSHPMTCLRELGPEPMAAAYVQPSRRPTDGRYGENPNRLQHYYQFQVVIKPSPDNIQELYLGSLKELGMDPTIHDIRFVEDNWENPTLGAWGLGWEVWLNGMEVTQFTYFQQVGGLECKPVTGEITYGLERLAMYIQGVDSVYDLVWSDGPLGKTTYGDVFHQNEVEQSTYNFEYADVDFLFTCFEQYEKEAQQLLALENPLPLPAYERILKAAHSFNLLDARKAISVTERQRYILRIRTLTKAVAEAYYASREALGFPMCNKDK
T1 sequence (P00961 1-689): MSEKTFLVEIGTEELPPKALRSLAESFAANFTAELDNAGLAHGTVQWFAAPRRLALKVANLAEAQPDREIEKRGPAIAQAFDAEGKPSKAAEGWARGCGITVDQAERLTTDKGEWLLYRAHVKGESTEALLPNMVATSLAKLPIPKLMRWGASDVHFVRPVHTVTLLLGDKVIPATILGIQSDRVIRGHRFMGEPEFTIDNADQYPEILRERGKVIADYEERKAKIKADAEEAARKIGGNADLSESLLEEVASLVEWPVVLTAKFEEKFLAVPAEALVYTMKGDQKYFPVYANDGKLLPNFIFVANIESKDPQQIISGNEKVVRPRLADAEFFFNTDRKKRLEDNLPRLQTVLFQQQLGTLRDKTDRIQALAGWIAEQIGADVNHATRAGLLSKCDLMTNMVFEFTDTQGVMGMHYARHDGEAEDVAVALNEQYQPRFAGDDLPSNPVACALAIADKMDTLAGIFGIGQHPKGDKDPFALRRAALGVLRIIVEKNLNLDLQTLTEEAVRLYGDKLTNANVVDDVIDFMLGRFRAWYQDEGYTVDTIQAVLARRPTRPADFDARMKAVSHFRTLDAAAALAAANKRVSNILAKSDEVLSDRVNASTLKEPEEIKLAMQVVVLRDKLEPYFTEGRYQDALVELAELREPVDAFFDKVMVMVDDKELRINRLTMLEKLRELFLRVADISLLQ
The experiment in a line: isothermal titration calorimetry, one-site fit. It is filed as binding. (In general: ITC needs no label: the signal is the heat of the interaction.)

pKd: −log10 of the molar value.

As usually defined, the pKd is the Kd on a negative log10 scale, so that one unit is a factor of ten. Low readings indicate a large Kd, high ones a small Kd. Regarding `Nc1ncnc2c1ncn2[C@@H]1O[C@H](COP(=O)(O)OP(=O)(O)OP(=O)(O)O)[C@@H](O)[C@H]1O` [ATP], the pKd was ~5.22.
